Assay results taken from ChEMBL document CHEMBL5233246, “CT1-3, a novel magnolol-sulforaphane hybrid suppresses tumorigenesis through inducing mitochondria-mediated apoptosis and inhibiting epithelial mesenchymal transition” (Eur J Med Chem, 2020).
Calls of active or inactive are those of the source. No cut-off for these calls is given here.

What was measured:
L02 = assay: Cytotoxicity against human L02 cells assessed as reduction in cell viability incubated for 8 hrs by CCK-8 assay; type: toxicity, cell-based; settings: l02, 8 h
NCI-H460 = assay: Cytotoxicity against human NCI-H460 cells assessed as reduction in cell viability at 10 uM incubated for 8 hr by CCK-8 assay; type: functional, cell-based

With `C=CCc1ccc(O)c(-c2cc(CC=C)ccc2OCCSCCCCN=C=S)c1` the Activity (L02) was “Non-Toxic” and the Activity (NCI-H460) was “inactive”.
